Values quoted from earlier work as cited in US8968755B2, “Topical base and active agent-containing compositions, and methods for improving and treating skin” (priority 2010, dated 2015).

**Q.** For `CCCCCCCCCCCCCCCCCCO` [Stearyl alcohol, 1-octadecanol], which solubility in water is on record?
**A.** insoluble in water
